Data from ChEMBL document CHEMBL4680187, “Optimization of EphA2 antagonists based on a lithocholic acid core led to the identification of UniPR505, a new 3α-carbamoyloxy derivative with antiangiogenetic properties” (Eur J Med Chem, 2020).
Active and inactive are the calls of the source. No cut-off for these calls is given here.

How the values were obtained:
Ephrin type-A receptor 2 = Ephrin type-A receptor 2 (Mus musculus, UniProt Q03145); assay: Displacement of biotinylated ephrin-A1-Fc from recombinant mouse c-terminal His6-tagged EphA2 Fc (Ala22 to Ala535 residues) preincubated for 1 hr followed by ephrin-A1-FC addition and measured after 4 hrs by ELISA
PC-3 = assay: Cytotoxicity against human PC3 cells after 2 hrs by LDH assay; type: cell-based; conditions: pc-3, 2 h
Chorioallantoic membrane = assay: Antiangiogenic activity in Leghorn chicken fertilized egg chorioallantoic membrane assessed as reduction in unstimulated neovascularization at 10 uM measured after 3 days by CAM assay; type: functional, tissue-based; conditions: Gallus gallus, time 3.0 day

Ephrin type-A receptor 2, sequence (Q03145 whole entry): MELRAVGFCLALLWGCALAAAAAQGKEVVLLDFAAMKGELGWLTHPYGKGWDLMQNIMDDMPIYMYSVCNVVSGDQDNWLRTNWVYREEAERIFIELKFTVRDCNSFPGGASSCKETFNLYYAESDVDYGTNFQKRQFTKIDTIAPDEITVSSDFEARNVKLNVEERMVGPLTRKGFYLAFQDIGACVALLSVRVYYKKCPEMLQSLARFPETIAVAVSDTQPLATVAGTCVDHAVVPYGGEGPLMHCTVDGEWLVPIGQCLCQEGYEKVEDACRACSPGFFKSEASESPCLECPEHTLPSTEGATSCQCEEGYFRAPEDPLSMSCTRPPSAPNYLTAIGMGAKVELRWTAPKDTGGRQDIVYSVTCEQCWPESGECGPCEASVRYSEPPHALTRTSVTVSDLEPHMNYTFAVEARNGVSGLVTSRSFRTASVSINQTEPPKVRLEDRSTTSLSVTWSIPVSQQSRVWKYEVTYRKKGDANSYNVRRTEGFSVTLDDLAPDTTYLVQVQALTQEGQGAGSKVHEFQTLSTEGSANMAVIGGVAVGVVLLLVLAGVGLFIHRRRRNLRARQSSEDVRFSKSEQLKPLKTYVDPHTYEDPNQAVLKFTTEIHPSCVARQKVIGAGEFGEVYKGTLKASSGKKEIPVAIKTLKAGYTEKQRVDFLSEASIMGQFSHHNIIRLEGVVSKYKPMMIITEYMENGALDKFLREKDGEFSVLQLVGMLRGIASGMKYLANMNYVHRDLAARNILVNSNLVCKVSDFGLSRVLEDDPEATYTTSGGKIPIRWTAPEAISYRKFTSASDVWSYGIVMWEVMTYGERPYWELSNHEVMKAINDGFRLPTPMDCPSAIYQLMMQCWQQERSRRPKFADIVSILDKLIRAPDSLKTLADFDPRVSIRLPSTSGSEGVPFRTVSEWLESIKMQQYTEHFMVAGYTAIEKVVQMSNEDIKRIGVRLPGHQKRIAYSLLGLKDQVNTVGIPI

| Structure (SMILES) | IC50 (Ephrin type-A receptor 2) | Activity (PC-3) | Activity (Chorioallantoic membrane) |
| --- | --- | --- | --- |
| CCCCNC(=O)O[C@@H]1CC[C@@]2(C)[C@H](CC[C@@H]3[C@@H]2CC[C@]2(C)[C@@H]([C@H](C)CCC(=O)O)CC[C@@H]32)C1 | 3.7 µM |  |  |
| C[C@H](CCC(=O)O)[C@H]1CC[C@H]2[C@@H]3CC[C@@H]4C[C@@H](OC(N)=O)CC[C@]4(C)[C@H]3CC[C@]12C | 9.1 µM |  |  |
| CC(C)NC(=O)O[C@@H]1CC[C@@]2(C)[C@H](CC[C@@H]3[C@@H]2CC[C@]2(C)[C@@H]([C@H](C)CCC(=O)O)CC[C@@H]32)C1 | 12 µM |  |  |
| CCCCCCNC(=O)O[C@@H]1CC[C@@]2(C)[C@H](CC[C@@H]3[C@@H]2CC[C@]2(C)[C@@H]([C@H](C)CCC(=O)N[C@H](CC(=O)O)Cc4c[nH]c5ccccc45)CC[C@@H]32)C1 | 1.5 µM | Non-Toxic |  |
| C[C@H](CCC(=O)N[C@H](CC(=O)O)Cc1c[nH]c2ccccc12)[C@H]1CC[C@H]2[C@@H]3CC[C@@H]4C[C@H](OC(N)=O)CC[C@]4(C)[C@H]3CC[C@]12C | 1.2 µM | Non-Toxic | inactive |
| CCCCCCCCNC(=O)O[C@@H]1CC[C@@]2(C)[C@H](CC[C@@H]3[C@@H]2CC[C@]2(C)[C@@H]([C@H](C)CCC(=O)N[C@H](CC(=O)O)Cc4c[nH]c5ccccc45)CC[C@@H]32)C1 | 15 µM |  |  |
| C[C@H](CCC(=O)N[C@H](CC(=O)O)Cc1c[nH]c2ccccc12)[C@H]1CC[C@H]2[C@@H]3CC[C@@H]4C[C@@H](OC(N)=O)CC[C@]4(C)[C@H]3CC[C@]12C | 5.2 µM |  |  |
| CCNC(=O)O[C@@H]1CC[C@@]2(C)[C@H](CC[C@@H]3[C@@H]2CC[C@]2(C)[C@@H]([C@H](C)CCC(=O)O)CC[C@@H]32)C1 | 30 µM |  |  |
| C[C@H](CCC(=O)O)[C@H]1CC[C@H]2[C@@H]3CC[C@@H]4C[C@H](OC(N)=O)CC[C@]4(C)[C@H]3CC[C@]12C | 17 µM |  |  |
| C[C@H](CCC(=O)N[C@H](CC(=O)O)Cc1c[nH]c2ccccc12)[C@H]1CC[C@H]2[C@@H]3CC[C@@H]4C[C@H](OC(=O)NC5CCCCC5)CC[C@]4(C)[C@H]3CC[C@]12C | 1.2 µM | Non-Toxic |  |
| CCCCNC(=O)O[C@@H]1CC[C@@]2(C)[C@H](CC[C@@H]3[C@@H]2CC[C@]2(C)[C@@H]([C@H](C)CCC(=O)N[C@H](CC(=O)O)Cc4c[nH]c5ccccc45)CC[C@@H]32)C1 | 1.1 µM | Non-Toxic |  |
| CCCCCCNC(=O)O[C@@H]1CC[C@@]2(C)[C@H](CC[C@@H]3[C@@H]2CC[C@]2(C)[C@@H]([C@H](C)CCC(=O)O)CC[C@@H]32)C1 | 3.3 µM |  |  |
| CCCCCCCCNC(=O)O[C@@H]1CC[C@@]2(C)[C@H](CC[C@@H]3[C@@H]2CC[C@]2(C)[C@@H]([C@H](C)CCC(=O)O)CC[C@@H]32)C1 | 4.5 µM |  |  |
| C[C@H](CCC(=O)O)[C@H]1CC[C@H]2[C@@H]3CC[C@@H]4C[C@H](OC(=O)NC5CCCCC5)CC[C@]4(C)[C@H]3CC[C@]12C | 2.7 µM |  |  |
| C[C@H](CCC(=O)N[C@H](CC(=O)O)Cc1c[nH]c2ccccc12)[C@H]1CC[C@H]2[C@@H]3CC[C@@H]4C[C@H](OC(=O)Nc5ccccc5)CC[C@]4(C)[C@H]3CC[C@]12C | 5.5 µM |  |  |
| C[C@H](CCC(=O)O)[C@H]1CC[C@H]2[C@@H]3CC[C@@H]4C[C@H](OC(=O)Nc5ccccc5)CC[C@]4(C)[C@H]3CC[C@]12C | 38 µM |  |  |
| CC(C)NC(=O)O[C@@H]1CC[C@@]2(C)[C@H](CC[C@@H]3[C@@H]2CC[C@]2(C)[C@@H]([C@H](C)CCC(=O)N[C@H](CC(=O)O)Cc4c[nH]c5ccccc45)CC[C@@H]32)C1 | 7.1 µM |  |  |
